# Assay results from patent publication US20060234934A1, “Composition and Method for Selective Cytostasis” (priority 2005, published 2006).
# Experiments:
# [1] = tested on: Malignant melanoma A375 cells; assay: 3[H]-thymidine incorporation in A375 cell cultures; assay type: cell-based
# Protocol: Each fraction was reconstituted in 110 μl of Dulbecco's modified Eagle's medium (DMEM) with fetal calf serum (FCS) 5 vol. %, 100 I.U. penicillin, 100 μg streptomycin and 2 nmole glutamine.
# Malignant melanoma A375 cells (obtained from the American Type Culture Collection, Rockville, Md.) were counted in a counter (obtained from Coulter Diagnostics, Hialeah, Fla.), and about 4,000 cells were seeded into each well of a 96 well microtiter plate (obtained from Fisher Scientific, Springfield, N.J.) with 200 I.U. penicillin, 200 µg streptomycin and DMEM containing FCS 5 vol. %, 2 nmole glutamine, and […] HEPES (hydroxyethylpiperazine-ethanesulfonic acid buffer) as needed to give a final well volume of […]. […]
# The cell cultures were terminated and harvested with a cell harvester (obtained from Flow Laboratories, McLean, Va., under the designation Titertek®), removing the contents of each microtiter plate well onto glass fiber filter paper. […] The strips were placed in scintillation vials and counted in 2 ml scintillation solution (obtained from Fisher Scientific, Springfield, N.J., under the designation Scintiverse®) using a scintillation counter (Model No. LS 100 C. obtained from Beckman Instruments, Somerset, N.J.) to determine the uptake of ^3[H]-thymidine into newly synthesized DNA.
# [2] = tested on: ALL line MOLT-4 (CRL1582); assay: 3[H]thymidine uptake in leukemic cell line MOLT-4; assay type: cell-based, human; conditions: 50 nG/mL
# Protocol: For example, the ALL line MOLT-4 (now denoted CRL1582 by the ATCC) was used for testing a representative cytostatic peptide for its effect on leukemic cells. The testing method described by Kikuwa, et al (1986), which is hereby incorporated herein by reference. In brief, the cells were maintained as a suspension in RPMI 1640 (Gibco) and 10% FCS, 100 u. penicillin G/mL and 100 micrograms streptomycin/mL with 2 mM L-glutamine.
# Representative non-toxic cytostatic peptides were tested in still other cancer cell lines.
substance,measurement,setting,value
serine-glutamine-cysteine-glutamic acid-glutamine-glutamic acid-glycine-glycine-phenalalanine-cysteine-arginine-phenylalanine-leucine-leucine-cysteine-proline-serine-arginine-threonine-serine-aspartic acid-isoleucine-glysine-lysine-leucine-glycine-cysteine-glutamic acid-proline-leucine-tryptophan-lysine-cysteine-cysteine-lysine-arginine-tryptophan-glycine-glycine [peak Q],less 3[H]-thymidine uptake than controls,[1]; HPLC fraction,about 50%
same,"amount sufficient to arrest the proliferations of at least about 100,000 melanoma cells",[1]; melanoma cells,about 50 ng
same,less 3[H]thymidine uptake than controls,[2],90-95%
same,visual appearance of cells,[2],altered “rounded” visual appearance
